Test results published in US20040077640A1 (priority 2000, published 2004).
Structures can show the parent of a compound that is named as a salt.

Row | melting point | SMILES
1 | 138 to 139 °C | CCCCCCN1CCC(c2nc(-c3ccc(-c4ccccc4)cc3)c[nH]2)CC1 [Example 19, 4-[4-(1,1′-biphenyl-4-yl)-1H-imidazol-2-yl]-1-hexylpiperidine]
2 | 73 to 74 °C | CCCCOC(=O)N1CCC(c2nc(-c3ccc(-c4ccccc4)cc3)c[nH]2)CC1 [Example 20, butyl 4-[4-(1,1′-biphenyl-4-yl)-1H-imidazol-2-yl]piperidine-1-carboxylate]
3 | 48 to 50 °C | CCCCOC(=O)N1CCC(c2nc(-c3ccc(OC)cc3)c[nH]2)CC1 [Example 26, butyl 4-[4-(4-methoxyphenyl)-1H-imidazol-2-yl]piperidine-1-carboxylate]
4 | 116 to 117 °C | CCCCOC(=O)N1CCCC(c2nc(-c3ccc(-c4ccccc4)cc3)c[nH]2)C1 (stereo not drawn) [Example 24, butyl 3-[4-(1,1′-biphenyl-4-yl)-1H-imidazol-2-yl]piperidine-1-carboxylate]
5 | 166 to 167 °C | CCCCOC(=O)N1CCCCC1c1nc(-c2ccc(-c3ccccc3)cc2)c[nH]1 (stereo not drawn) [Example 23, butyl 2-[4-(1,1′-biphenyl-4-yl)-1H-imidazol-2-yl]piperidine-1-carboxylate]
6 | 226 to 227 °C | c1ccc(-c2ccc(-c3c[nH]c(C4CCCNC4)n3)cc2)cc1 (stereo not drawn) (as salt: hydrochloride) [Example 22, 3-[4-(1,1′-biphenyl-4-yl)-1H-imidazol-2-yl]piperidine]

Continued, compound first:

Row | SMILES | melting point
7 | COc1ccc(-c2c[nH]c(C3CCNCC3)n2)cc1 (as salt: hydrochloride) | 272 to 273 °C
8 | CCCCOC(=O)N1CCCCC1c1nc(-c2ccc(F)cc2)c[nH]1 (stereo not drawn) | 157.4 °C
9 | Fc1ccc(-c2c[nH]c(C3CCCCN3)n2)cc1 (stereo not drawn) (as salt: hydrochloride) | 222 to 223 °C
10 | Fc1ccc(-c2c[nH]c(C3CCNCC3)n2)cc1 (as salt: hydrochloride) | > 260 °C
11 | c1ccc(CN2CCC(c3nc(-c4ccc(-c5ccccc5)cc4)c[nH]3)CC2)cc1 [Example 12, 1-benzyl4-[4-(1,1′-biphenyl-4-yl)-1H-imidazol-2-yl]piperidine] | 110 to 112 °C
12 | CCCCOC(=O)N1CCCC(c2nc(-c3ccc(F)cc3)c[nH]2)C1 (stereo not drawn) | 96.5 °C
13 | CCCCOC(=O)N1CCC(c2nc(-c3ccc(C(C)(C)C)cc3)c[nH]2)CC1 [Example 13, butyl 4-[4-(4-tert-butylphenyl)-1H-imidazol-2-yl]piperidine-1-carboxylate] | 98 to 100 °C
14 | CC(C)(C)OC(=O)N1CCC(c2nc(-c3ccc(F)cc3)c[nH]2)CC1 | 180 to 182 °C
15 | Fc1ccc(-c2c[nH]c(C3CCCCN3Cc3ccccc3)n2)cc1 (stereo not drawn) [Example 17, 1-benzyl-2-[4-(4-fluorophenyl)-1H-imidazol-2-yl]piperidine] | 181.6 °C
